This assay addresses T1, human cannabinoid CB2 receptor (Homo sapiens, UniProt P34972).
T1 construct: expressed in transfected cells; host or cells: Saccharomyces cerevisiae strain MMY23 (cassette integrated at the ura3 locus; chimeric Gpa1/Gαi3)
As to the kind of experiment: Cannabinoid CB2 receptor agonist activity, yeast (Saccharomyces cerevisiae) cells expressing the receptor, FDGlu fluorescence. Particulars: for Emax: read-out: efficacy (Emax relative to HU210) at the cloned human cannabinoid CB2 receptor. It counts as cell-based. The protocol:
The cannabinoid CB2 receptor agonist activity of the compounds of formula (I) was determined in accordance with the following experimental method.
Yeast (Saccharomyces cerevisiae) cells expressing the human cannabinoid CB2 receptor were generated by integration of an expression cassette into the ura3 chromosomal locus of yeast strain MMY23. This cassette consisted of DNA sequence encoding the human CB2 receptor flanked by the yeast GPD promoter to the 5′ end of CB2 and a yeast transcriptional terminator sequence to the 3′ end of CB2. MMY23 expresses a yeast/mammalian chimeric G-protein alpha subunit in which the C-terminal 5 amino acids of Gpa1 are replaced with the C-terminal 5 amino acids of human Gαi3 (as described in Brown et al. (2000), Yeast 16:11-22). Cells were grown at 30° C. in liquid Synthetic Complete (SC) yeast media (Guthrie and Fink (1991), Methods in Enzymology, Vol. 194) lacking uracil, tryptophan, adenine and leucine to late logarithmic phase (approximately 6 OD600/ml).
Agonists were prepared as 10 mM stocks in DMSO. EC50 values (the concentration required to produce 50% maximal response) were estimated using dilutions of between 3- and 5-fold (BiomekFX, Beckman) into DMSO. Agonist solutions in DMSO (1% final assay volume) were transferred into black, clear bottom, microtitre plates from NUNC (96- or 384-well). Cells were suspended at a density of 0.2 OD600/ml in SC media lacking histidine, uracil, tryptophan, adenine and leucine and supplemented with 10 mM 3-aminotriazole, 0.1M sodium phosphate pH 7.0, and […] fluorescein di-β-D-glucopyranoside (FDGlu). This mixture (50 ul per well for 384-well plates, 200 ul per well for 96-well plates) was added to agonist in the assay plates (Multidrop 384, Labsystems). After incubation at 30° C. for 24 hours, fluorescence resulting from degradation of FDGlu to fluorescein due to exoglucanase, an endogenous yeast enzyme produced during agonist-stimulated cell growth, was determined using a Spectrofluor microtitre plate reader (Tecan; excitation wavelength: 485 nm; emission wavelength: 535 nm). Fluorescence was plotted against compound concentration and iteratively curve fitted using a four parameter fit to generate a concentration effect value. Efficacy (Emax) was calculated from the equation
Emax=Max[compound X]−Min[compound X]/Max[HU210]−Min[HU210]×100%
where Max[compound X] and Min[compound X] are the fitted maximum and minimum respectively from the concentration effect curve for compound X, and Max[HU210] and Min[HU210] are the fitted maximum and minimum respectively from the concentration effect curve for (6aR,10aR)-3-1,1′-Dimethylheptyl)-6a,7,10,10a-tetrahydro-1-hydroxy-6,6-dimethyl-6H-dibenzo[b,d]pyran-9-methanol (HU210; available from Tocris). Equieffective molar ratio (EMR) values were calculated from the equation
Where EC50[compound X] is the EC50 of compound X and EC50[HU210] is the EC50 of HU210.

[1] abbreviates: yeast agonist assay, read-out: EC50 at the cloned human cannabinoid CB2 receptor.

Counter-ions that a name gives are not always drawn. Like-named read-outs stand apart in the source and are kept apart here.

T1 sequence (P34972 whole entry): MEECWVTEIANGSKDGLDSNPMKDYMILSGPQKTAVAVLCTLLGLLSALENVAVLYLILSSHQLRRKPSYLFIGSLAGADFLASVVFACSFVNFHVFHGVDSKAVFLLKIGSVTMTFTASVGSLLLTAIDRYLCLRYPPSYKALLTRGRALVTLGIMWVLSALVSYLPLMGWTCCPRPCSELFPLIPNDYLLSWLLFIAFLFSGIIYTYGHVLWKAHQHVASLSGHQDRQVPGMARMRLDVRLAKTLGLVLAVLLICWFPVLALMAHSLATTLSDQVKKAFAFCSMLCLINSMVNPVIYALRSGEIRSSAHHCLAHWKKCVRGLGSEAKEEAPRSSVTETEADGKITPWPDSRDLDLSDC

What is called EC50 is the concentration needed to bring the measured effect to its halfway point. For orientation: Emax means the size of the effect at its maximum, as opposed to the concentration needed. Regarding `FC(F)(F)c1nc(Nc2cccc(Cl)c2)ncc1CNC1CCCCC1` [Example 43, (3-Chlorophenyl)-(5-cyclohexylaminomethyl-4-trifluoromethyl-pyrimidin-2-yl)-amine], the EC50 was in the range of 0.3 to 1 µM and the Emax is above 50%.
On to `CN(C)Cc1cnc(Nc2cccc(Cl)c2)nc1C(F)(F)F` [Example 44, (3-Chlorophenyl)-(5-dimethylaminomethyl-4-trifluoromethyl-pyrimidin-2-yl)-amine, formate], for which the Emax was above 50%. For the same molecule, the EC50 under setting [1] lay within 0.3 to 1 µM.
For `FC(F)(F)c1nc(Nc2cccc(Cl)c2)ncc1CNCCc1ccccc1` [Example 45, (3-Chlorophenyl)-[5-(phenethylamino-methyl)-4-trifluoromethyl-pyrimidin-2-yl]-amine, formate], in that order: above 50% and 0.3 to 1 µM.
On to `FC(F)(F)c1nc(Nc2cccc(Cl)c2)ncc1CNCCCc1ccccc1` [Example 46, (3-Chlorophenyl)-[5-(phenpropylamino-methyl)-4-trifluoromethyl-pyrimidin-2-yl]-amine, formate], for which the Emax was above 50%. Further, under setting [1], the EC50 is 0.3 to 1 µM.
Taken in the same sequence, the figures for `CCCCN(C)Cc1cnc(Nc2cccc(Cl)c2)nc1C(F)(F)F` [Example 47, {5-[(Butyl-methyl-amino)-methyl]-4-trifluoromethyl-pyrimidin-2-yl}-(3-chlorophenyl)-amine] were above 50% and 0.3 to 1 µM.
Taken in the same sequence, the figures for `CCC(C)NCc1cnc(Nc2cccc(Cl)c2)nc1C(F)(F)F` (stereo not drawn) [Example 48, [5-(sec-Butylamino-methyl)-4-trifluoromethyl-pyrimidin-2-yl]-(3-chloro-phenyl)-amine, formate] were above 50% and 0.3 to 1 µM.
Taken in the same sequence, the figures for `FC(F)(F)c1nc(Nc2cccc(Cl)c2)ncc1CNC[C@H]1CCCO1` [Example 49, (3-Chlorophenyl)-(5-{[[(2R)-tetrahydro-furan-2-ylmethyl]-amino]-methyl}-4-trifluoromethyl-pyrimidin-2-yl)-amine,formate] were above 50% and 0.3 to 1 µM.
For the molecule `CN(Cc1cnc(Nc2cccc(Cl)c2)nc1C(F)(F)F)CC1CCC1` [Example 51], the Emax is above 50%. Moreover, under setting [1], the EC50 fell in the range of 0.3 to 1 µM.
For `CC(O)CNCc1cnc(Nc2cccc(Cl)c2)nc1C(F)(F)F` (stereo not drawn) [Example 52, 1-{[2-(3-Chlorophenylamino)-4-trifluoromethyl-pyrimidin-5-ylmethyl]-amino}-propan-2-ol], in that order: above 50% and 0.3 to 1 µM.
As for `FC(F)(F)c1nc(Nc2ccc(Cl)cc2Cl)ncc1CN1CCCC1` [Example 53, (2,4-Dichlorophenyl)-(5-pyrrolidin-1-ylmethyl-4-trifluoromethyl-pyrimidin-2-yl)-amine], the Emax was above 50%. The EC50 under setting [1] was 0.3 to 1 µM.
For `Fc1cccc(Nc2ncc(CNCC3CC3)c(C(F)(F)F)n2)c1` [Example 54, (3-Fluorophenyl)-{5-[(cyclopropylmethylamino)-methyl]-4-trifluoromethyl-pyrimidin-2-yl}-amine,formate], in that order: above 50% and 0.3 to 1 µM.
For `CC(C)CCNCc1cnc(Nc2cccc(F)c2)nc1C(F)(F)F` [Example 55, (3-Fluorophenyl)-{5-[(3-methylbutylamino)-methyl]-4-trifluoromethyl-pyrimidin-2-yl}-amine], in that order: above 50% and 0.3 to 1 µM.
For `Fc1cccc(Nc2ncc(CN3CCOCC3)c(C(F)(F)F)n2)c1` [Example 56, (3-Fluorophenyl)-(5-morpholin-4-ylmethyl-4-trifluoromethyl-pyrimidin-2-yl)-amine], in that order: above 50% and 0.3 to 1 µM.
Take `N#Cc1cccc(Nc2ncc(CNC3CC3)c(C(F)(F)F)n2)c1` [Example 58, (3-Cyanophenyl)-(5-cyclopropylaminomethyl-4-trifluoromethyl-pyrimidin-2-yl)-amine,formate]: the Emax was above 50%. For the same molecule, under setting [1], the EC50 fell in the range of 0.3 to 1 µM.
Taken in the same sequence, the figures for `CC(C)CNCc1cnc(Nc2cccc(C#N)c2)nc1C(F)(F)F` [Example 59, (3-Cyanophenyl)-{5-[(isobutylamino)-methyl]-4-trifluoromethyl-pyrimidin-2yl}-amine, formate] were above 50% and 0.3 to 1 µM.
As to `COCCN(CCOC)Cc1cnc(Nc2cccc(Cl)c2)nc1C(F)(F)F` [Example 83, (5-{[Bis-(2-methoxy-ethyl)-amino]-methyl}-4-trifluoromethyl-pyrimidin-2-yl)-(3-chlorophenyl)-amine], the “potency or efficacy at the CB2 receptor (in words)” value is given as “no appreciable potency or efficacy”. In addition, the “potency or efficacy at the CB2 receptor (in words)” value (listed as (5-{[Bis-(2-methoxy-ethyl)-amino]-methyl}-4-trifluoromethyl-pyrimidin-2-yl)-(3-c)) is “do not appear to have any potency or efficacy”.
With `CC(NC1CC1)c1cnc(Nc2cccc(Cl)c2)nc1C(F)(F)F` (stereo not drawn) [Example 85], the EC50 is below 0.3 µM and the Emax is above 50%.
For `CC(NC1CC1)c1cnc(Nc2cccc(F)c2)nc1C(F)(F)F` (stereo not drawn) [Example 86, (3-Fluorophenyl)-[5-(1-cyclopropylamino-ethyl)-4-trifluoromethyl-pyrimidin-2-yl]-amine], in that order: below 0.3 µM and above 50%.
For `CC(C)CNC(C)c1cnc(Nc2cccc(F)c2)nc1C(F)(F)F` (stereo not drawn) [Example 87, (3-Fluorophenyl)-[5-(1-isobutylamino-ethyl)-4-trifluoromethyl-pyrimidin-2-yl]-amine], the EC50 under setting [1] was below 0.3 µM. For the same molecule, the Emax (yeast agonist assay) is above 50%.
Taken in the same sequence, the figures for `CC(NCC1CCOCC1)c1cnc(Nc2cccc(Cl)c2)nc1C(F)(F)F` (stereo not drawn) [Example 88, (3-Chlorophenyl)-(5-{1-[(tetrahydro-pyran-4-ylmethyl)-amino]-ethyl}-4-trifluoromethyl-pyrimidin-2-yl)-amine, formate] were below 0.3 µM and above 50%.
Taken in the same sequence, the figures for `CC(NCC1CCCC1)c1cnc(Nc2cccc(Cl)c2)nc1C(F)(F)F` (stereo not drawn) [Example 90, (3-Chlorophenyl)-{5-[1-(cyclopentylmethyl-amino)-ethyl]-4-trifluoromethyl-pyrimidin-2-yl}-amine, formate] were below 0.3 µM and above 50%.
Taken in the same sequence, the figures for `CC(C)CNC(C)c1cnc(Nc2cccc(Cl)c2)nc1C(F)(F)F` (stereo not drawn) [Example 92, (3-Chlorophenyl)-[5-(1-isobutylamino-ethyl)-4-trifluoromethyl-pyrimidin-2-yl]-amine, formate] were below 0.3 µM and above 50%.
For `CC(c1cnc(Nc2cccc(Cl)c2)nc1C(F)(F)F)N1CCOCC1` (stereo not drawn) [Example 93, (3-Chlorophenyl)-[5-(1-morpholin-4-yl-ethyl)-4-trifluoromethyl-pyrimidin-2-yl]-amine], the EC50 was below 0.3 µM and the Emax was above 50%.
Turning to `CC(NCC1CC1)c1cnc(Nc2cccc(F)c2)nc1C(F)(F)F` (stereo not drawn) [Example 94, (3-Fluorophenyl)-{5-[1-(cyclopropylmethyl-amino)-ethyl]-4-trifluoromethyl-pyrimidin-2-yl}-amine, formate], under setting [1], the EC50 is below 0.3 µM. The Emax (yeast agonist assay) was above 50%.
Regarding `CC(NCC1CCCCC1)c1cnc(Nc2ccc(Cl)cc2Cl)nc1C(F)(F)F` (stereo not drawn) [Example 95, (2,4-Dichlorophenyl)-{5-[1-(cyclohexyhnethyl-amino)-ethyl]-4-trifluoromethyl-pyrimidin-2-yl}-amine], the EC50 was below 0.3 µM and the Emax was above 50%.
As to `Fc1cc(CNCc2cnc(Nc3cccc(Cl)c3)nc2C(F)(F)F)ccn1` [Example 96, (3-Chlorophenyl)-(5-{[(2-fluoropyridin-4-ylmethyl)amino]-methyl}-4-trifluoromethyl-pyrimidin-2yl}-amine, formate], the Emax is above 50%. Moreover, under setting [1], the EC50 is 0.3 to 1 µM.
As for `CC(C)(C)c1nc(Nc2cccc(Cl)c2)ncc1CN1CCOCC1` [Example 97, (4-tert-Butyl-5-morpholin-4-ylmethyl-pyrimidin-2-yl)-(3-chloro-phenyl)-amine hydrochloride], under setting [1], the EC50 was below 0.3 µM. Besides, the Emax (yeast agonist assay) was above 50%.

Source of the values: patent US20080261977A1, “Pyrimidine Derivatives as Cannabinoid Receptor Modulators” (priority 2004, published 2008).
